For data set [1] the following is noted: neutral pH media; reference (42); cited from earlier work.
A short description of data set [2]: HPLC degradation products and mass balance of hydrocortisone formulation processed by TKC. It counts as physicochemical. How it is done:
Pharmaceutical compositions of hydrocortisone were prepared by TKC, having an ejection temperature of approximately 160° C., and compared to the unprocessed drug substance to evaluate the formation of degradation products induced by processing.
Analytical testing of the hydrocortisone formulation processed by TKC was performed by HPLC using a Phenomenex C18 column and mobile phase of 65:35 methanol:water at a flow rate of 1 ml/min. Degradation products were identified and are described in terms of their retention time under this method.

A short description of data set [3]: DSC / modulated DSC glass transition analysis. It counts as physicochemical. To be noted: DSC/mDSC, 10° C./min. How it is done:
Differential Scanning calorimetry (DSC). DSC analysis was conducted using a TA Instruments Model 2920 DSC (New Castle, Del.) equipped with a refrigerated cooling system. Samples were weighed to 15±5 mg in aluminum crimped pans (Kit 0219-0041, Perkin-Elmer Instruments, Norwalk, Conn.). For the KTZ dispersions in Methocel™ E50 and Kollidon® 30 the samples were heated at a ramp rate of 10° C./min from 5 to 215° C. with a modulation temperature amplitude of 0.5° C. and a modulation period of 40 seconds for all studies. For the IND and KTZ dispersions in […]® L 100-55 the samples were analyzed by conventional, non-modulated DSC at a ramp rate of 10° C./min from 5 to 200° C. Ultrahigh purity nitrogen was used as the purge gas at a flow rate of 40 mL/min. All data analyses were performed using TA Universal Analysis 2000 software. The thermogram for amorphous KTZ, used in the DSC analysis of the solid dispersions formulations of KTZ in Methocel™ E50 and Kollidon® 30 was obtained on a second heating of crystalline KTZ following an initial heating to 215° C. followed by rapid cooling (20° C./min) to 5° C. The thermograms of Methocel™ E50 and Kollidon® 30 were obtained by first run DSC following preheating of the polymer powders to 90° C. for 15 minutes in an MF-50 model moisture analyzer (AND Company Ltd. Encino, Calif.) to expel absorbed moisture.
Modulated Differential scanning calorimetry testing for the griseofulvin products was performed using a TA Instruments Model 2920 DSC (New Castle, Del.) and analyzed using TA Universal Analysis 2000 Software. Samples were accurately weighed to 15±2 mg in aluminum crimped pans. […]
Modulated Differential scanning calorimetry testing of itraconazole:HPMC E5 processed by TKC and by HME was performed using a TA Instruments Model 2920 DSC (New Castle, Del.) and analyzed using TA Universal Analysis 2000 Software. […]
The tested were conducted on a TA Instruments Model 2920 DSC (New Castle, Del.) and analyzed using TA Universal Analysis 2000 Software. […]

Each structure is given as a SMILES string.

Turning to `CC(=O)N1CCN(c2ccc(OCC3COC(Cn4ccnc4)(c4ccc(Cl)cc4Cl)O3)cc2)CC1` (stereo not drawn) [KTZ, ketoconazole], the “equilibrium (saturation) solubility” value in data set [1] is 5.98 µg/mL.
As to `C[C@]12CCC(=O)C=C1CC[C@@H]1[C@@H]2[C@@H](O)C[C@@]2(C)[C@H]1CC[C@]2(O)C(=O)CO` [Hydrocortisone, USP, Hydrocortisone], the “Impurity - 3.2” value in data set [2] (HPLC retention time 3.2) came out at 0.20%. Moreover, the “Impurity - 3.9” value in data set [2] (HPLC retention time 3.9) stood at 0.26%. For the same molecule, the “Impurity - 4.9” value in data set [2] (HPLC retention time 4.9) was determined as 0.20%. Moreover, the “Impurity - 5.5” value in data set [2] (HPLC retention time 5.5) is recorded as 0.62%. For the same molecule, the “Impurity - 8.7” value in data set [2] (HPLC retention time 8.7) turned out to be 0.13%.
Turning to `COC1=CC(=O)C[C@@H](C)[C@]12Oc1c(Cl)c(OC)cc(OC)c1C2=O` [amorphous griseofulvin, griseofulvin], in data set [3], the “glass transition temperature (Tg)” value came out at 90 °C.
In the case of `CC(=O)N1CCN(c2ccc(OCC3COC(Cn4ccnc4)(c4ccc(Cl)cc4Cl)O3)cc2)CC1` (stereo not drawn) [amorphous KTZ, ketoconazole], the “glass transition temperature (Tg)” value in data set [3] was 45 °C; in data set [3] (listed as Amorphous KTZ), “approximately 45 °C”.
